Experimental data taken from US20070066512A1, “Methods and compositions using immunomodulatory compounds for the treatment of disorders associated with low plasma leptin levels” (priority 2005, published 2007).

Key:
[1] = cited from earlier work; for interconversion of polymorphic form: aqueous solvent systems or higher relative humidities; for hygroscopicity of polymorphic form: crystalline form of 3-(4-amino-1-oxo-1,3 dihydro-isoindol-2-yl)-piperidene-2,6-dione
adiponectin mRNA = test: Northern blot of adiponectin mRNA in MSC-derived adipocytes; format: cell-based, Human; settings: adipocytes treated with compound vs DMSO; GAPDH control unchanged
Protocol: (§1) Human Mesenchymal Stem Cell (MSC) and adipocyte differentiation media were obtained from Cambrex (Walkersville, Md.). MSCs were seeded in 24 well plates at 40,000 cells per well in MSC Basic Medium (MSCBM), supplemented with 10% serum and expanded for 7 days. At 100% of confluence, three cycles of induction/maintenance stimulated adipogetic differentiation. Each cycle consisted feeding MSCs with Adipogenic Induction Medium (AIM) for 3 days, followed by 1 day of culture in Adipogenic Maintenance Medium (AMM). AIM and AMM contained 10% serum, Pen-Sterep and L-Glu, supplemented with insulin, dexamethasone, indomethacin and IBMX, or insulin only. After 3 complete cycles of induction/maintenance, MSCs are cultured for 3 more days in AMM and analyzed.
(§2) To study the effects of immunomodulatory compounds on adipocyte differentiation, MSCs were differentiated in the presence of DMSO or varying concentrations of an immunomodulatory compound. DMSO and immunomodulatory compounds were added to the medium during the differentiation and maintenance steps. Phenotypic characterization of the cells for adipocyte markers, such as triglyceride content and adipokine secretion, was performed.
(§3) RNAs from MSC-derived adipocytes were isolated with RNeasy lipid tissue kit (Qiagen, Valencia, Calif.). […]

MSCs [2] = test: MSC viability (XTT assay); format: cell-based, Human; settings: MSCs treated for 2 days vs DMSO
Protocol: (§4) MSC viability was assayed using cell proliferation kit II (XTT) (Roche, Indianapolis, Ind.). MSC proliferation was assayed using 5-bromo-2′-deoxy-uridine labeling and detection kit III (BrdU) (Roche, Indianapolis, Ind.). MSCs have been seeded in 96 well plates and expanded for 2 days in presence of DMSO or varying concentrations of an immunomodulatory compound. XTT and BrdU were added to the cells for 20 hours. The viability and proliferation of MSCs were assayed following manufacturer's instructions.

leptin mRNA = test: Northern blot of leptin mRNA in MSC-derived adipocytes; format: cell-based, Human; settings: adipocytes treated with compound vs DMSO; GAPDH control unchanged
Protocol: as §1, §2, §3

MSCs [3] = test: MSC proliferation (BrdU incorporation assay); format: cell-based, Human; settings: MSCs treated for 2 days vs DMSO
Protocol: as §4

[4] = tested on: adiponectin secretion in adipocytes; test: Adiponectin secretion of adipocytes (quantikine human adiponectin immunoassay); format: cell-based; settings: adipocytes differentiated in presence of compound
Protocol: as §1
To study the effects of immunomodulatory compounds on adipocyte differentiation, MSCs were differentiated in the presence of DMSO or varying concentrations of an immunomodulatory compound. […]
Leptin and adiponectin were measured using the quantikine human leptin and human adiponectin immunoassay kits (R&D Systems, Minneapolis, Minn.). To measure leptin secretion, 100 μl of medium was collected from the cell plates, diluted 2 or 5 times depending on the collecting time during the differentiation process, and analyzed following the manufacturer's protocols. […] For adiponectin secretion, 50 μl of medium was collected and directly analyzed.

[5] = tested on: adipocytes differentiated from Human Mesenchymal Stem Cell (MSC); test: Triglyceride accumulation in MSC-derived adipocytes (microscopy, Oil Red O staining); format: cell-based; settings: for triglyceride accumulation quantified by Oil Red O staining (FIG. 2B): cells cultured with compound vs DMSO
Protocol: as §1, §2
Fat content in adipocyte was quantified by Oil Red O staining. Cells were washed with PBS and fixed with 3.7% formaldehyde for 15 minutes. Lipid vacuoles were stained with 0.5% Oil Red O in 60% isopropanol for 30 minutes at 37° C. Cells were then washed three times with water and Oil Red O content was dissolved into 100% propanol. The optical density of the solution was measured at 510 nm.

[6] = tested on: leptin secretion in adipocytes; test: Leptin secretion of adipocytes (quantikine human leptin immunoassay); format: cell-based; settings: for concentration giving maximum of dose dependent leptin secretion response: adipocytes differentiated in presence of compound; for dexamethasone induced leptin secretion (FIG. 3C): dexamethasone added to the cells for 15 hours at the end of differentiation
Protocol: as §1, §2
Leptin and adiponectin were measured using the quantikine human leptin and human adiponectin immunoassay kits (R&D Systems, Minneapolis, Minn.). To measure leptin secretion, 100 μl of medium was collected from the cell plates, diluted 2 or 5 times depending on the collecting time during the differentiation process, and analyzed following the manufacturer's protocols. Results were corrected for the dilution factor. For adiponectin secretion, 50 μl of medium was collected and directly analyzed.

Compound | interconversion of polymorphic form [1] | hygroscopicity of polymorphic form [1] | level of adiponectin mRNAs (northern blot, FIG. 5) (adiponectin mRNA) | cell viability (XTT, FIG. 6) (MSCs [2]) | level of leptin mRNAs (northern blot, FIG. 5) (leptin mRNA) | cell proliferation (BrdU incorporation, FIG. 6) (MSCs [3]) | adiponectin secretion vs cells differentiated in DMSO (FIG. 4) [4] | triglyceride accumulation quantified by Oil Red O staining (FIG. 2B) [5] | concentration giving maximum of dose dependent leptin secretion response [6] [µM] | dexamethasone induced leptin secretion (FIG. 3C) [6] | other results
Nc1cccc2c1CN(C1CCC(=O)NC1=O)C2=O (centres unmarked) [Form C, 3-(4-amino-1-oxo-1,3 dihydro-isoindol-2-yl)-piperidene-2,6-dione] | can convert to Form B at higher relative humidities | not hygroscopic below about 85% RH | – | – | – | – | – | – | – | – | –
Nc1cccc2c1CN(C1CCC(=O)NC1=O)C2=O (centres unmarked) [1-oxo-(2,6-dioxopiperidin-3-yl)-4-aminoisoindoline] | – | – | dose-dependent decrease | neither 1-oxo-(2,6-dioxopiperidin-3-yl)-4-aminoisoindoline nor 1,3-dioxo-(2,6-dioxopiperidin-3-yl)-4-aminoisoindoline caused significant change | dose-dependently increase | neither 1-oxo-(2,6-dioxopiperidin-3-yl)-4-aminoisoindoline nor 1,3-dioxo-(2,6-dioxopiperidin-3-yl)-4-aminoisoindoline caused significant change | lower levels of adiponectin secretion | no significant difference | 25 | enhanced dexamethasone induced leptin secretion | ability of the cells to accumulate triglyceride (microscopy, FIG. 2A) ([5]; cells differentiated with compound vs DMSO, lipid vacuoles observed): does not alter the ability of the cells to accumulate triglyceride; leptin secretion vs cells differentiated in DMSO (FIG. 3A) ([6]; adipocytes differentiated in presence of 2.5, 10, 25, or 50 μM): secreted higher levels of leptin
Nc1cccc2c1C(=O)N(C1CCC(=O)NC1=O)C2=O (centres unmarked) [1,3-dioxo-(2,6-dioxopiperidin-3-yl)-4-aminoisoindoline] | – | – | dose-dependent decrease | neither 1-oxo-(2,6-dioxopiperidin-3-yl)-4-aminoisoindoline nor 1,3-dioxo-(2,6-dioxopiperidin-3-yl)-4-aminoisoindoline caused significant change | dose-dependently increase | neither 1-oxo-(2,6-dioxopiperidin-3-yl)-4-aminoisoindoline nor 1,3-dioxo-(2,6-dioxopiperidin-3-yl)-4-aminoisoindoline caused significant change | lower levels of adiponectin secretion | no significant difference | 10 | enhanced dexamethasone induced leptin secretion | leptin secretion vs cells differentiated in DMSO (FIG. 3B) ([6]; adipocytes differentiated in presence of 0. 1, 1, 2.5, or 10 μM): a similar result was observed
Nc1cccc2c1CN(C1CCC(=O)NC1=O)C2=O (centres unmarked) [Form D, 3-(4-amino-1-oxo-1,3 dihydro-isoindol-2-yl)-piperidene-2,6-dione] | will typically convert to Form B when stressed at higher relative humidities | either weakly or not hygroscopic | – | – | – | – | – | – | – | – | –
Nc1cccc2c1CN(C1CCC(=O)NC1=O)C2=O (centres unmarked) [Form A, 3-(4-amino-1-oxo-1,3 dihydro-isoindol-2-yl)-piperidene-2,6-dione] | – | weakly or not hygroscopic | – | – | – | – | – | – | – | – | relative stability of polymorphic form ([1]; Form A: among anhydrous polymorphs, Form E: in aqueous solvent systems): most thermodynamically stable anhydrous polymorph
Nc1cccc2c1CN(C1CCC(=O)NC1=O)C2=O (centres unmarked) [Form B, 3-(4-amino-1-oxo-1,3 dihydro-isoindol-2-yl)-piperidene-2,6-dione] | converts to Form E in aqueous solvent systems | – | – | – | – | – | – | – | – | – | –
